Here are results for 2 compounds from paper PMC6517080 (Chembiochem : a European journal of chemical biology, 2018).

As usually defined, the Kd is the constant that tells how readily two partners part at equilibrium.

This assay has as its target antithrombin (AT) (Homo sapiens, UniProt P01008). In words: ITC. The assay is classed as binding.

antithrombin (AT), sequence (P01008 33-464): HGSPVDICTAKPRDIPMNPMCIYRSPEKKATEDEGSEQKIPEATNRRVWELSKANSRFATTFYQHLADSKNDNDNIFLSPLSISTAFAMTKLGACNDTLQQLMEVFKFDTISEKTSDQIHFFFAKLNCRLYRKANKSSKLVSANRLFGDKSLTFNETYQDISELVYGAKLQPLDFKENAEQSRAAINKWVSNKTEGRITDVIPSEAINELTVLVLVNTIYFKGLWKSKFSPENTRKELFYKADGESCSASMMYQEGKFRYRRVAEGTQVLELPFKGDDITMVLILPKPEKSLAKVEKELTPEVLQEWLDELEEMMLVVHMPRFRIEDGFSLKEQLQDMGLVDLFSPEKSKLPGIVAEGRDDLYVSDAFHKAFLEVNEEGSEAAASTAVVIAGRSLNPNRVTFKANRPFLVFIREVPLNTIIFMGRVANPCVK

In the case of `O=C(O)[C@H]1O[C@@H](Oc2ccc([N+](=O)[O-])cc2)[C@H](O)[C@@H](O)[C@@H]1O[C@H]1O[C@H](COS(=O)(=O)O)[C@@H](O[C@@H]2O[C@@H](C(=O)O)[C@@H](O[C@H]3O[C@H](COS(=O)(=O)O)[C@@H](O[C@@H]4O[C@H](C(=O)O)[C@@H](O[C@H]5O[C@H](COS(=O)(=O)O)[C@@H](O)[C@H](O)[C@H]5NS(=O)(=O)O)[C@H](O)[C@H]4O)[C@H](OS(=O)(=O)O)[C@H]3NS(=O)(=O)O)[C@H](O)[C@H]2OS(=O)(=O)O)[C@H](O)[C@H]1NS(=O)(=O)O` [hexa-4], the Kd came out at 551 nM.

In turn, `O=C(O)[C@H]1O[C@@H](Oc2ccc([N+](=O)[O-])cc2)[C@H](O)[C@@H](O)[C@@H]1O[C@H]1O[C@H](COS(=O)(=O)O)[C@@H](O[C@@H]2O[C@@H](C(=O)O)[C@@H](O[C@H]3O[C@H](COS(=O)(=O)O)[C@@H](O[C@@H]4O[C@H](C(=O)O)[C@@H](O[C@H]5O[C@H](COS(=O)(=O)O)[C@@H](O)[C@H](O)[C@H]5NS(=O)(=O)O)[C@H](O)[C@H]4O)[C@H](OS(=O)(=O)O)[C@H]3NS(=O)(=O)O)[C@H](O)[C@H]2O)[C@H](O)[C@H]1NS(=O)(=O)O` [hexa-8] displayed a Kd of 1290 nM.
